Data: PMC3447335, “Evaluation of Pseudopteroxazole and Pseudopterosin Derivatives against Mycobacterium tuberculosis and Other Pathogens” (Marine Drugs, 2012)
Converted amounts (≈) assume the structure as drawn. Where two headings read alike, the source gives them in different places.

How the values were obtained:
[1] = test system: M. tuberculosis H37Rv (ATCC 27294); experiment: Microplate Alamar blue assay (MABA); type: cell-based, Mycobacterium tuberculosis; details: for SI (Selectivity Index): (Vero Cell IC50)/(M. tuberculosis MIC); for MIC: Mycobacterium tuberculosis
[2] = test system: M. tuberculosis H37Rv (ATCC 27294); experiment: microbe, parasite or virus in culture; type: cell-based, Mycobacterium tuberculosis; details: for inhibition at 64 µg/mL / MIC: Mycobacterium tuberculosis; for inhibition at 64 µg/mL: % inhibition at 64 μg/mL, read-out: LORA % inh; for MIC: read-out: LORA MIC
[3] = test system: MRSA; experiment: Microbroth dilution antibiotic susceptibility assay; type: cell-based; details: Staphylococcus aureus, read-out: IC50 MRSA
[4] = test system: VRE; experiment: as above; type: cell-based, Enterococcus faecium; details: Enterococcus, read-out: IC50 VRE
[5] = test system: M. smegmatis (ATCC 12051); experiment: as above; type: cell-based; details: Mycolicibacterium smegmatis
[6] = test system: M. diernhoferi (ATCC 19340); experiment: as above; type: cell-based; details: Mycolicibacterium diernhoferi
[7] = test system: Vero cells; experiment: cells; details: Chlorocebus sabaeus; for cytotoxicity at 128 µg/mL: read-out: Vero cell (% inh); for IC50: read-out: Vero cell IC50
[8] = test system: M. tuberculosis H37Rv; set-up: method as in PMID 9145860; details: comparison values; cited from earlier work
[9] = M. tuberculosis H37Rv (ATCC 27294), replicating, read-out: MABA MIC
[10] = non-replicating persistent model
[11] = ATCC12051, microbroth dilution, read-out: MIC M. smegmatis
[12] = ATCC19340, microbroth dilution, read-out: MIC M. diernhoferi
[13] = wild-type M. tuberculosis H37Rv, Table 2 experiment, read-out: MABA MIC H37Rv

Compound | SI (Selectivity Index) [1] | MIC [1, 9] | inhibition at 64 µg/mL [2] | MIC [5, 11] | MIC [6, 12] | IC50 [7] | also measured
CC(C)=CC1CC(C)C2CCC(C)c3c2c1c(C)c1nc(Cc2cnc[nH]2)oc31 (stereo not shown) [7a/7b] | >9.7 | 13 µg/mL | 92.5% | 4 µg/mL (≈ 10.3 µM) | 2 µg/mL (≈ 5.13 µM) | > 128 µg/mL | MIC ([1]; MABA, value given in μM, read-out: MIC against M. tuberculosis H37Rv): 34 µM; MIC [2, 10]: 12 µg/mL; MIC ([2]; value given in μM): 31 µM; IC50 [3]: 3 µg/mL (≈ 7.7 µM); IC50 [4]: 7.5 µg/mL (≈ 19.3 µM); cytotoxicity at 128 µg/mL [7]: 4%
CC(C)=C[C@@H]1C[C@H](C)[C@H]2CC[C@H](C)c3c(O)c(O)c(C)c1c32 [Compound 4, pseudopterosin G–J aglycone] | – | > 128 µg/mL | 53.1% | 8 µg/mL (≈ 26.6 µM) | 8 µg/mL (≈ 26.6 µM) | 50 µg/mL (≈ 166 µM) | IC50 ([3]; microbroth dilution): 88 µg/mL (≈ 293 µM); IC50 ([4]; microbroth dilution): > 128 µg/mL
CC(C)=C[C@@H]1C[C@H](C)[C@H]2CC[C@H](C)c3c2c1c(C)c1nccnc31 [Compound 5, Pseudopteroquinoxaline] | 0.8 | 29 µg/mL | 99.9% | 16 µg/mL (≈ 49.9 µM) | 64 µg/mL (≈ 200 µM) | 22 µg/mL (≈ 68.6 µM) | IC50 ([3]; microbroth dilution): > 128 µg/mL; IC50 ([4]; microbroth dilution): > 128 µg/mL
COC(C)(C)C[C@@H]1C[C@H](C)[C@H]2CC[C@H](C)c3c2c1c(C)c1nccnc31 [Compound 6, 14,15-Dihydro-15-methoxy-pseudopteroquinoxaline] | 0.2 | 84 µg/mL | 99.9% | – | – | 15 µg/mL (≈ 42.6 µM) | –
CCCCCOc1c(C)c2c3c(c1O)[C@@H](C)CC[C@@H]3[C@@H](C)C[C@H]2C=C(C)C [Compound 8, 10-Pentoxy-pseudopterosin G–J Aglycone] | – | > 128 µg/mL | 35.1% | > 128 µg/mL | > 128 µg/mL | 49 µg/mL (≈ 132 µM) | IC50 ([3]; microbroth dilution): 47 µg/mL (≈ 127 µM); IC50 ([4]; microbroth dilution): 22 µg/mL (≈ 59.4 µM)
COc1c(C)c2c3c(c1O)[C@@H](C)CC[C@@H]3[C@@H](C)C[C@H]2C=C(C)C [Compound 9] | >4.3 | 30 µg/mL | 99.7% | 4 µg/mL (≈ 12.7 µM) | 4 µg/mL (≈ 12.7 µM) | > 128 µg/mL | MIC [2, 10]: 52 µg/mL; IC50 ([3]; microbroth dilution): 9 µg/mL (≈ 28.6 µM); IC50 ([4]; microbroth dilution): 12 µg/mL (≈ 38.2 µM); cytotoxicity at 128 µg/mL [7]: 26%
COc1c(C)c2c3c(c1OC)[C@@H](C)CC[C@@H]3[C@@H](C)C[C@H]2C=C(C)C [Compound 10, 9,10-Dimethoxy-pseudopterosin G–J Aglycone] | – | > 128 µg/mL | 77.5% | > 64 µg/mL | > 64 µg/mL | 51 µg/mL (≈ 155 µM) | IC50 ([3]; microbroth dilution): > 128 µg/mL; IC50 ([4]; microbroth dilution): 25 µg/mL (≈ 76.1 µM)
COc1c(C)c2c3c(c1OS(=O)(=O)C(F)(F)F)[C@@H](C)CC[C@@H]3[C@@H](C)C[C@H]2C=C(C)C [Compound 11, 9-Trifluoromethylsulfonyloxy-10-methoxy-pseudopterosin G–J Aglycone] | – | > 128 µg/mL | 37.5% | > 64 µg/mL | > 64 µg/mL | 51 µg/mL (≈ 114 µM) | IC50 ([3]; microbroth dilution): > 128 µg/mL; IC50 ([4]; microbroth dilution): > 128 µg/mL
COc1c(C)c2c3c(c1OC(=O)N(C)C)[C@@H](C)CC[C@@H]3[C@@H](C)C[C@H]2C=C(C)C [Compound 12, 9-Dimethylcarbamoyloxy-10-methoxy-pseudopterosin G–J Aglycone] | – | > 128 µg/mL | 80% | – | – | > 128 µg/mL | IC50 [3]: > 128 µg/mL; IC50 [4]: 70 µg/mL (≈ 182 µM); MIC ([5]; ATCC12051, read-out: MIC M. smegmatis): 64 µg/mL (≈ 166 µM); MIC ([6]; ATCC19340, read-out: MIC M. diernhoferi): > 64 µg/mL; cytotoxicity at 128 µg/mL [7]: 0%
COc1ccc(CC=C(C)C)c(OC)c1O [Compound 14, 2,6-Dimethoxy-3-(3-methylbut-2-enyl)phenol] | – | > 128 µg/mL | -4.7% | 128 µg/mL (≈ 576 µM) | 64 µg/mL (≈ 288 µM) | 44 µg/mL (≈ 198 µM) | IC50 [3]: > 128 µg/mL; IC50 [4]: > 128 µg/mL
COc1cc(CC=C(C)C)c(CC=C(C)C)c(OC)c1O [Compound 15, 2,6-Dimethoxy-3,4-bis(3-methylbut-2-enyl)phenol] | 1.1 | 59 µg/mL | 99.7% | 8 µg/mL (≈ 27.5 µM) | 8 µg/mL (≈ 27.5 µM) | 64 µg/mL (≈ 220 µM) | MIC [2, 10]: 58 µg/mL; IC50 [3]: 20 µg/mL (≈ 68.9 µM); IC50 [4]: 3 µg/mL (≈ 10.3 µM)
COc1c(O)c(OC)c(CC=C(C)C)c(CC=C(C)C)c1CC=C(C)C [Compound 16, 2,6-Dimethoxy-3,4,5-tris(3-methylbut-2-enyl)phenol] | >2.3 | 56 µg/mL | 79.7% | > 128 µg/mL | 8 µg/mL (≈ 22.3 µM) | > 128 µg/mL | IC50 [3]: > 128 µg/mL; IC50 [4]: 3 µg/mL (≈ 8.37 µM); cytotoxicity at 128 µg/mL [7]: 29%
COc1ccc(CC=C(C)C)c(OC)c1O[C@@H]1O[C@H](CO)[C@H](O)[C@H](O)[C@H]1O [Compound 20, 2,6-Dimethoxy-3-(3-methylbut-2-enyl)phenol-β-D-galactopyranoside] | – | > 128 µg/mL | -24.8% | > 128 µg/mL | > 128 µg/mL | 82 µg/mL (≈ 213 µM) | IC50 [3]: > 128 µg/mL; IC50 [4]: > 128 µg/mL
CC(C)=C[C@@H]1C[C@H](C)[C@H]2CC[C@H](C)c3c2c1c(C)c1ocnc31 [Compound 22, isopseudopteroxazole] | 3.6 | 14 µg/mL | 100% | – | – | 52 µg/mL (≈ 168 µM) | MIC [2, 10]: 44 µg/mL
COc1ccccc1-c1nc2c(C)c3c4c(c2o1)C(C)CCC4C(C)CC3C=C(C)C (stereo not shown) [Compound 23] | – | > 82 µg/mL | 83.3% | – | – | 34 µg/mL (≈ 81.8 µM) | –
CC(C)=CC1CC(C)C2CCC(C)c3c2c1c(C)c1nc(-c2ccc(F)cc2)oc31 (stereo not shown) [Compound 24] | – | > 31 µg/mL | -19% | – | – | > 31 µg/mL | cytotoxicity at 128 µg/mL [7]: 0%

Compound | SI (Selectivity Index) [1] | MIC [1, 9] | inhibition at 64 µg/mL [2] | MIC [5, 11] | MIC [6, 12] | IC50 [7] | also measured
CC(C)=CC1CC(C)C2CCC(C)c3c2c1c(C)c1nc(C)oc31 (stereo not shown) [Compound 25] | 0.8 | 15 µg/mL | 99% | – | – | 12 µg/mL (≈ 37.1 µM) | –
CCC(C)c1nc2c(C)c3c4c(c2o1)C(C)CCC4C(C)CC3C=C(C)C (stereo not shown) [Compound 26] | – | > 103 µg/mL | 59.1% | – | – | 73 µg/mL (≈ 200 µM) | –
CSCCc1nc2c(C)c3c4c(c2o1)C(C)CCC4C(C)CC3C=C(C)C (stereo not shown) [Compound 27] | >1.2 | 107 µg/mL | 90% | – | – | > 128 µg/mL | cytotoxicity at 128 µg/mL [7]: 0%
CC(C)=CC1CC(C)C2CCC(C)c3c2c1c(C)c1nc(Cc2ccccc2)oc31 (stereo not shown) [Compound 28] | – | > 128 µg/mL | 13.7% | – | – | 82 µg/mL (≈ 205 µM) | –
CC(C)=CC1CC(C)C2CCC(C)c3c2c1c(C)c1nc(C(C)O)oc31 (stereo not shown) [Compound 29] | 0.5 | 53 µg/mL | 99.8% | – | – | 24 µg/mL (≈ 67.9 µM) | –
COC(=O)CCc1nc2c(C)c3c4c(c2o1)C(C)CCC4C(C)CC3C=C(C)C (stereo not shown) [Compound 30] | – | > 128 µg/mL | 99.1% | – | – | 31 µg/mL (≈ 78.4 µM) | MIC [2, 10]: 62 µg/mL
CC(C)=CC1CC(C)C2CCC(C)c3c2c1c(C)c1nc(CCC(=O)O)oc31 (stereo not shown) [Compound 31] | 1.1 | 95 µg/mL | 99.1% | – | – | 102 µg/mL (≈ 267 µM) | –
CC(C)=CC1CC(C)C2CCC(C)c3c2c1c(C)c1nc(CCC(N)=O)oc31 (stereo not shown) [Compound 32] | 1.9 | 29 µg/mL | 99% | – | – | 54 µg/mL (≈ 142 µM) | –
CC(C)=CC1CC(C)C2CCC(C)c3c2c1c(C)c1nc(CC(N)=O)oc31 (stereo not shown) [Compound 33] | 0.8 | 59 µg/mL | 97.1% | – | – | 45 µg/mL (≈ 123 µM) | –
NNC(=O)c1ccncc1 [Isoniazid] | – | 0.03 µg/mL | – | – | – | – | MIC [1, 13]: 0.03 µg/mL; LORA (% inh) in MIC column ([2]; % inhibition in parentheses, where the MIC exceeds the stated concentration): 65%; MIC [2, 10]: > 128 µg/mL
O=[N+]([O-])c1cn2c(n1)OC[C@@H](OCc1ccc(OC(F)(F)F)cc1)C2 [PA824, reference compound] | – | 0.15 µg/mL | – | – | – | – | –
CO[C@H]1/C=C/O[C@@]2(C)Oc3c(C)c(O)c4c(O)c(c(/C=N/N5CCN(C)CC5)c(O)c4c3C2=O)NC(=O)/C(C)=C\C=C\[C@H](C)[C@H](O)[C@@H](C)[C@@H](O)[C@@H](C)[C@H](OC(C)=O)[C@@H]1C [Rifampin, reference compound] | – | 0.04 µg/mL | – | 4 µg/mL (≈ 4.86 µM) | 4 µg/mL (≈ 4.86 µM) | – | MIC [1, 13]: 0.03 µg/mL; MIC [2]: 0.93 µg/mL; IC50 ([4]; microbroth dilution): 0.88 µg/mL (≈ 1.07 µM)
CN[C@H](CC(C)C)C(=O)N[C@H]1C(=O)N[C@@H](CC(N)=O)C(=O)N[C@H]2C(=O)N[C@H]3C(=O)N[C@H](C(=O)N[C@H](C(=O)O)c4cc(O)cc(O)c4-c4cc3ccc4O)[C@H](O)c3ccc(c(Cl)c3)Oc3cc2cc(c3O[C@@H]2O[C@H](CO)[C@@H](O)[C@H](O)[C@H]2O[C@H]2C[C@](C)(N)[C@H](O)[C@H](C)O2)Oc2ccc(cc2Cl)[C@H]1O [Vancomycin, reference compound] | – | – | – | – | – | – | IC50 [3]: 1.23 µg/mL (≈ 0.849 µM)
N[C@@H]1CON=C1O [cycloserine] | – | – | – | – | – | – | MIC of first and second line TB treatments [8]: 122 to 490 µM
CC[C@@H](CO)NCCN[C@@H](CC)CO [ethambutol] | – | – | – | – | – | – | MIC of first and second line TB treatments [8]: 4.6 to 9.2 µM
